Tests used:
ceramide neutralization = test: Decitabine treatment of FLT3^ITD transgenic mice, gene expression by qRT-PCR; assay type: in vivo
Protocol: Decitabine treatment downregulates ceramide neutralization in FLT3^ITD transgenic mice while augmenting gdf1 expression. 8-12 week old mice harboring an internal tandem duplication in the Flt3 gene were treated with the hypomethylating agent, decitabine, at 0.2 mg/kg, 3 times weekly, for 6 weeks. Results were generated using qRT-PCR and normalized to housekeeping genes (Actb, RpII, Tbp). […] Treatment with decitabine reversed ugcg expression and led to downregulation of cers1 as compared to control mice. […] As expected, other related genes are also affected by decitabine treatment.
Hypomethylating Treatment Reverses the Effect of Leukemogenic Transgenes on Ceramide Detoxification. Myeloid hematological malignancies such as AML and myelodysplastic syndrome (MDS) are frequently treated with hypomethylating agents such as decitabine. In particular, treatment and management of MDS commonly utilizes these strategies to attempt to prevent the transformation of this bone marrow failure-like condition to AML. In this experiment, we utilized aged FLT3^ITD transgenic mice treated with/without decitabine and monitored the changes to the expression of genes in the bone marrow that regulate the production of bioactive sphingolipids.

[1] = system: AML cell lines (HL-60, Kasumi-1 and Kasumi-3); test: Gdf1 treatment of AML cell lines, gene expression by qRT-PCR; assay type: cell-based; details: 50 ng/mL, 24 hours; HL-60, Kasumi-1, Kasumi-3; compared to untreated counterparts
Protocol: Gdf1 treatment of AML cell lines triggers downregulation of ceramide neutralization pathways. AML cell lines (HL-60, Kasumi-1 and Kasumi-3), were treated with recombinant human gdf1 at a concentration of 50 ng/mL for 24 hours. Results were obtained via qRT-PCR and compared to housekeeping genes (Actb, RpII).

[2] = system: hematopoietic progenitor cells; test: Gdf1 treatment of bone marrow, flow cytometry immunophenotyping of LT-HSC and MPP; assay type: cell-based; details: 50 ng/mL, 24 hours; bone marrow of hybrid mice
Protocol: Gdf1 treatment promotes quiescence exit of hematopoietic progenitor cells. Bone marrow of hybrid mice was treated with human recombinant Gdf1 at a concentration of 50 ng/mL for 24 hours. Flow cytometry was used in immunophenotyping cells into subpopulations of long-term hematopoietic stem cells (LT-HSC) and multipotent progenitor cells (MPP). LT-HSCs were defined as Lin−, C-kit+, Sca-1+, CD150+, CD48−. MPPs were defined as Lin−, C-kit+, Sca-1+, CD150−, CD48−. Quiescent cells were defined as CD34+.

Molecule	gdf1 expression (ceramide neutralization; FLT3^ITD mice, decitabine 0.2 mg/kg, 3 times weekly, 6 weeks)	cers1 expression (ceramide neutralization; FLT3^ITD mice, decitabine 0.2 mg/kg, 3 times weekly, 6 weeks, compared to control mice)	ugcg expression (ceramide neutralization; FLT3^ITD mice, decitabine 0.2 mg/kg, 3 times weekly, 6 weeks, qRT-PCR normalized to Actb, RpII, Tbp)	relationship between gdf1 and either ugcg or sgms1 expression (ceramide neutralization; bone marrow of aged FLT3^ITD transgenic mice treated with/without decitabine)	cers1 expression [1]	ugcg expression [1]	cells bearing the CD34 marker (quiescent cells) in LT-HSC and MPP populations [2]	population of MPPs in the overall pool of analyzed cells [2]
Nc1ncn([C@H]2C[C@H](O)[C@@H](CO)O2)c(=O)n1 [decitabine, 5-aza-2′-deoxycytidine]	upregulated	downregulation	reversed	inverse relationship	–	–	–	–
Gdf1: Recombinant human Growth Differentiation Factor 1, a BMP family member and TGF-beta signaling pathway intermediate (protein, listed as Homo sapiens) MPPPQQGPCGHHLLLLLALLLPSLPLTRAPVPPGPAAALLQALGLRDEPQGAPRLRPVPPVMWRLFRRRDPQETRSGSRRTSPGVTLQPCHVEELGVAGNIVRHIPDRGAPTRASEPASAAGHCPEWTVVFDLSAVEPAERPSRARLELRFAAAAAAAPEGGWELSVAQAGQGAGADPGPVLLRQLVPALGPPVRAELLGAAWARNASWPRSLRLALALRPRAPAACARLAEASLLLVTLDPRLCHPLARPRRDAEPVLGGGPGGACRARRLYVSFREVGWHRWVIAPRGFLANYCQGQCALPVALSGSGGPPALNHAVLRALMHAAAPGAADLPCCVPARLSPISVLFFDNSDNVVLRQYEDMVVDECGCR	–	–	–	–	downregulated	downregulated	decrease	increase
